In US20040043959A1, “Combination therapies for treating methylthioadenosine phosphorylase deficient cells” (priority 2002, published 2004):

Target: T1, Human MTAP (Homo sapiens, UniProt Q13126)
T1 construct: six-histidine tag (His6) (N); made in house; host or cells: E. coli BL21 DE3
T1 sequence (Q13126 1-283): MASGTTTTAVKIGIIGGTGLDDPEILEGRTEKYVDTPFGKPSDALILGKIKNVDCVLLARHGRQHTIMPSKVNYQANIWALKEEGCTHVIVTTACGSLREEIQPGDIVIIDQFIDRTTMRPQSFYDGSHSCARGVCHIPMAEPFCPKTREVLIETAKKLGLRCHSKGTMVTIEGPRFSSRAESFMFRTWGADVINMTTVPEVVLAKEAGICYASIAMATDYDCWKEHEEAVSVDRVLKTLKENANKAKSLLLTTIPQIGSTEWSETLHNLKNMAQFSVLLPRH
Experiment: MTAP substrate assay, coupled spectrophotometric (adenine, xanthine oxidase)
Type: biochemical
Details: 2 nM MTAP; for activity at 50 µM: 10 min, read-out: MT-A—50: initial velocity as a percentage of the initial velocity with MTA as substrate; for activity at 50 µM / MT-A—50: initial velocity as a percentage of the initial velocity with MTA as substrate: compound 50 uM, relative to MTA at 50 uM; for MT-A—10: initial velocity as a percentage of the initial velocity with MTA as substrate: compound 10 uM, relative to MTA at 10 uM
Protocol: An enzymatic assay to determine the activity of MTAP against a given substrate was performed. Human MTAP containing an N-terminal six-histidine tag was expressed in E. coli BL21 DE3 cells. The protein was purified to homogeneity by Ni2+ affinity chromatography. Enzymatic activity was measured using a coupled spectrophotometric assay designed to monitor the reaction product adenine (Savarese, T. M., Crabtree, G. W., and Parks, R. E. Jr., (1980) Biochem. Pharmacol. 30, 189-199). Various concentrations of the indicated 5′-deoxymethylthio adenosine (MTA) or substrate were incubated in assay buffer (40 mM potassium phosphate buffer, 1 mM, and DTT 0.8 units/ml xanthine oxidase coupling enzyme) for 5 minutes at 37° C. The reaction was initiated by the addition of MTAP. The exact concentration of enzyme used varied for each substrate tested and ranged from 2 nM to 500 nM. Activity as a function of enzyme concentration was determined for each substrate tested to ensure that the appropriate enzyme concentration was used. Activity was detected by continuous monitoring of absorbance at 305 nm for 10 minutes (ΔE=15,500 M^−1).
Library compounds (10 and 50 uM) were tested using the assay described above with 2 nM MTAP enzyme. The resultant initial velocities are reported as a percentage of the initial velocity observed when MTA is the substrate. MTA controls, 10 and 50 uM concentrations, were run on each plate alongside the library compounds.

activity at 50 µM [%] | MT-A—10: initial velocity as a percentage of the initial velocity with MTA as substrate [%] | Compound | MT-A—50: initial velocity as a percentage of the initial velocity with MTA as substrate [%]
23 | 8 | Nc1ncnc2c1ncn2[C@@H]1O[C@H](CSc2ccccc2C2=NCCCN2)[C@@H](O)[C@H]1O [2(G)(1), (2R, 3R, 4S, 5S)-2-(6-amino-9H-purin-9-yl)-5-({[2-(1,4,5,6-tetrahydropyrimidin-2-yl)phenyl]thio}methyl)-tetrahydrofuran-3,4-diol] | 
5 | 3 | Nc1ccccc1SC[C@H]1O[C@@H](n2cnc3c(N)ncnc32)[C@H](O)[C@@H]1O [2(G)(2), (2R, 3R, 4S, 5S)-2-(6-amino-9H-purin-9-yl)-5-{[(2-amino-phenyl)thio]methyl}tetrahydrofuran-3,4-diol] | 
19 | 20 | Nc1ccc(SC[C@H]2O[C@@H](n3cnc4c(N)ncnc43)[C@H](O)[C@@H]2O)cc1 [2(G)(10), (2R, 3R, 4S, 5S)-2-(6-amino-9H-purin-9-yl)-5-{[(4-aminophenyl)thio]methyl]-tetrahydrofuran-3,4-diol] | 
25 | 24 | Nc1ncnc2c1ncn2[C@@H]1O[C@H](CSc2nc3ccccc3s2)[C@@H](O)[C@H]1O [2(G)(12), (2R, 3R, 4S, 5S)-2-(6-amino-9H-purin-9-yl)-5-[(1,3-benzothiazol-2-ylthio)methyl]tetrahydro-furan-3,4-diol] | 
 | 19 | CC(=O)Nc1ccc(SC[C@H]2O[C@@H](n3cnc4c(N)ncnc43)[C@H](O)[C@@H]2O)cc1 [2(G)(13), N-[4-({[(2S, 3S, 4R, 5R)-5-(6-amino-9H-purin-9-yl)-dihydroxytetrahydro-furan-2-yl]methyl}thio)phenyl]acetamide] | 17
51 | 16 | Nc1ncnc2c1ncn2[C@@H]1O[C@H](CSc2ccc(O)cc2)[C@@H](O)[C@H]1O [2(G)(14), (2R, 3R, 4S, 5S)-2-(6-amino-9H-purin-9-yl)-5-{[(4-hydroxyphenyl)-thio]-methyl}tetrahydrofuran-3,4-diol] | 
60 | 59 | COc1ccc(CSC[C@H]2O[C@@H](n3cnc4c(N)ncnc43)[C@H](O)[C@@H]2O)cc1 [2(G)(16), (2R, 3R, 4S, 5S)-2-(6-amino-9H-purin-9-yl)-5-{[(4-methoxybenzyl)-thio]methyl}tetrahydro-furan-3,4-diol] | 
17 | 21 | Nc1ncnc2c1ncn2[C@@H]1O[C@H](CSc2ccc(Br)cc2)[C@@H](O)[C@H]1O [2(G)(17), (2R, 3R, 4S, 5S)-2-(6-amino-9H-purin-9-yl)-5-{[(4-bromophenyl)-thio]methyl}tetrahydro-furan-3,4-diol] | 
4 | 5 | Nc1ncnc2c1ncn2[C@@H]1O[C@H](CSc2cccc3ccccc23)[C@@H](O)[C@H]1O [2(G)(18), (2R, 3R, 4S, 5S)-2-(6-amino-9H-purin-9-yl)-5-[(1-naphthylthio)methyl]tetrahydrofuran-3,4-diol] | 
17 | 19 | Nc1ncnc2c1ncn2[C@@H]1O[C@H](CSc2ccc(Cl)cc2)[C@@H](O)[C@H]1O [2(G)(19), (2R, 3R, 4S, 5S)-2-(6-amino-9H-purin-9-yl)-5-{[(4-chlorophenyl)thio]-methyl}tetrahydro-furan-3,4-diol] | 
9 | 12 | CC(C)(C)c1ccc(SC[C@H]2O[C@@H](n3cnc4c(N)ncnc43)[C@H](O)[C@@H]2O)cc1 [2(G)(21), (2R, 3R, 4S, 5S)-2-(6-amino-9H-purin-9-yl)-5-{[(4-tert-butylphenyl)thio]methyl}tetrahydrofuran-3,4-diol] | 
15 | 3 | Cc1cccc(C)c1SC[C@H]1O[C@@H](n2cnc3c(N)ncnc32)[C@H](O)[C@@H]1O [2(G)(22), (2R, 3R, 4S, 5S)-2-(6-amino-9H-purin-9-yl)-5-{[(2,6-dimethylphenyl)-thio]methyl}tetrahydro-furan-3,4-diol] | 
31 | 21 | Nc1ncnc2c1ncn2[C@@H]1O[C@H](CSc2ccc(F)cc2)[C@@H](O)[C@H]1O [2(G)(23), (2R, 3R, 4S, 5S)-2-(6-amino-9H-purin-9-yl)-5-{[(4-fluorophenyl)-thio]methyl}tetra-hydrafuran-3,4-diol] | 

The next lines start with the molecule.

Compound | activity at 50 µM [%] | MT-A—10: initial velocity as a percentage of the initial velocity with MTA as substrate [%] | MT-A—50: initial velocity as a percentage of the initial velocity with MTA as substrate [%]
Nc1nc(SC[C@H]2O[C@@H](n3cnc4c(N)ncnc43)[C@H](O)[C@@H]2O)c2[nH]cnc2n1 [2(G)(3), (2R, 3R, 4S, 5S)-2-(6-amino-9H-purin-9-yl)-5-{[(2-amino-7H-purin-6-yl)thio]methyl}tetrahydro-furan-3,4-diol] | 45 | 46 | 
CCc1cnc(SC[C@H]2O[C@@H](n3cnc4c(N)ncnc43)[C@H](O)[C@@H]2O)[nH]c1=O [2(G)(4), 2-({[(2S, 3S, 4R, 5R)-5-(6-amino-9H-purin-9-yl)-dihydroxytetrahydrofuran-2-yl]methyl}thio)-5-ethylpyrimidin-4(3H)-one] | 49 | 38 | 
Cn1nnnc1SC[C@H]1O[C@@H](n2cnc3c(N)ncnc32)[C@H](O)[C@@H]1O [2(G)(6), (2R, 3R, 4S, 5S)-2-(6-amino-9H-purin-9-yl)-5-{[(1-methyl-1H-tetrazol-5-yl)thio]methyl}tetra-hydrofuran-3,4-diol] | 47 | 46 | 
CCCSc1ccc2[nH]c(SC[C@H]3O[C@@H](n4cnc5c(N)ncnc54)[C@H](O)[C@@H]3O)nc2c1 [2(G)(7), (2R, 3R, 4S, 5S)-2-(6-amino-9H-purin-9-yl)-5-({[5-(propylthio)-1H-benzimidazol-2-yl]thio}methyl)tetrahydro-furan-3,4-diol] | 0 | 3 | 
Nc1ncnc2c1ncn2[C@@H]1O[C@H](CSc2ncccn2)[C@@H](O)[C@H]1O [2(G)(8), (2R, 3R, 4S, 5S)-2-(6-amino-9H-purin-9-yl)-5-[(pyrimidin-2-ylthio)methyl]tetrahydro-furan-3,4-diol] | 59 | 54 | 
Nc1nnc(SC[C@H]2O[C@@H](n3cnc4c(N)ncnc43)[C@H](O)[C@@H]2O)s1 [2(G)(9), (2R, 3R, 4S, 5S)-2-(6-amino-9H-purin-9-yl)-5-{[(5-amino-1,3,4-thiadiazol-2-yl)thio]methyl}tetrahydro-furan-3,4-diol] | 47 | 34 | 
Nc1ncnc2c1ncn2[C@@H]1O[C@H](CSc2nc3cc(Cl)ccc3s2)[C@@H](O)[C@H]1O [2(G)(11), (2R, 3R, 4S, 5S)-2-(6-amino-9H-purin-9-yl)-5-{[(5-chloro-1,3-benzothiazol-2-yl)thio]methyl}tetrahydro-furan-3,4-diol] | 25 | 22 | 
Nc1ncnc2c1ncn2[C@@H]1O[C@H](CSc2ccc3ccccc3c2)[C@@H](O)[C@H]1O [2(G)(15)] |  | 29 | 25
COC(=O)c1ccc(SC[C@H]2O[C@@H](n3cnc4c(N)ncnc43)[C@H](O)[C@@H]2O)cc1 [2(G)(20), methyl 4-({[(2S, 3S, 4R, 5R)-5-(6-amino-9H-purin-9-yl)-5-3,4-dihydroxytetrahydro-furan-2-yl]methyl}thio)benzoate] | 5 | 7 | 
COc1ccc(OC)c(SC[C@H]2O[C@@H](n3cnc4c(N)ncnc43)[C@H](O)[C@@H]2O)c1 [2(G)(24), (2R, 3R, 4S, 5S)-2-(6-amino-9H-purin-9-yl)-5-{[(2,5-dimethoxy-phenyl)-thio]methyl}tetrahydrofuran-3,4-diol] | 23 | 4 | 
COc1ccc(SC[C@H]2O[C@@H](n3cnc4c(N)ncnc43)[C@H](O)[C@@H]2O)cc1OC [2(G)(25), (2R, 3R, 4S, 5S)-2-(6-amino-9H-purin-9-yl)-5-{[(3,4-dimethoxyphenyl)-thio]methyl}tetrahydro-furan-3,4-diol] | 30 | 5 | 
